This passage reports Activity and solubility results from ChEMBL document CHEMBL6153153, “Use of Aldehyde-Alkyne-Amine Couplings to Generate Medicinal Chemistry-Relevant Linkers” (ACS Med Chem Lett, 2025).

Data set [1] deals with HEK293. The data set is described as follows: PROTAC activity at E3 ligase/long BRD4 (unknown origin) expressed in HEK293 cells assessed as induction of BRD4 degradation at 300 to 1000 nM incubated for 18 hrs by Western blot analysis. It is filed as cell-based. To be noted: Homo sapiens, dose 300-1000 nM.
For data set [2], the system named is HEK293. The experiment in a line: PROTAC activity at E3 ligase/short BRD4 (unknown origin) expressed in HEK293 cells assessed as induction of BRD4 degradation at 300 to 1000 nM incubated for 18 hrs in presence of MLN4924 by Western blot analysis. In kind it is cell-based. To be noted: Homo sapiens, dose 300-1000 nM.
The subject of data set [3] is HEK293. The data set is described as follows: PROTAC activity at E3 ligase/short BRD4 (unknown origin) expressed in HEK293 cells assessed as induction of BRD4 degradation at 300 to 1000 nM incubated for 18 hrs in presence of MG132 by Western blot analysis. In kind it is cell-based. To be noted: Homo sapiens, dose 300-1000 nM. (In general: In western blotting, separated proteins are transferred to a membrane and probed.)

The subject of data set [4] is HEK293. The experiment in a line: PROTAC activity at E3 ligase/long BRD4 (unknown origin) expressed in HEK293 cells assessed as induction of BRD4 degradation at 300 to 1000 nM incubated for 18 hrs in presence of MLN4924 by Western blot analysis. In kind it is cell-based. To be noted: Homo sapiens, dose 300-1000 nM.
In data set [5] the test system is HEK293. The experiment in a line: PROTAC activity at E3 ligase/short BRD4 (unknown origin) expressed in HEK293 cells assessed as induction of BRD4 degradation at 300 to 1000 nM incubated for 18 hrs in presence of thalidomide by Western blot analysis. It is filed as cell-based. The conditions noted are these: Homo sapiens, dose 300-1000 nM.
The nature of data set [6]: Solubility of the compound in saline. It is filed as physicochemical. To be noted: buffer.
Data set [7] deals with HEK293. The data set is described as follows: PROTAC activity at E3 ligase/short BRD4 (unknown origin) expressed in HEK293 cells assessed as induction of BRD4 degradation at 300 to 1000 nM incubated for 18 hrs by Western blot analysis. It is filed as cell-based. To be noted: Homo sapiens, dose 300-1000 nM.
Data set [8] has as its system HEK293. The experiment in a line: PROTAC activity at E3 ligase/long BRD4 (unknown origin) expressed in HEK293 cells assessed as induction of BRD4 degradation at 300 to 1000 nM incubated for 18 hrs in presence of MG132 by Western blot analysis. It is filed as cell-based. The conditions noted are these: Homo sapiens, dose 300-1000 nM.
Data set [9] can be described thus: Solubility of compound in 5 percent PBS buffer. In kind it is physicochemical.
The subject of data set [10] is HEK293. The experiment in a line: PROTAC activity at E3 ligase/long BRD4 (unknown origin) expressed in HEK293 cells assessed as induction of BRD4 degradation at 300 to 1000 nM incubated for 18 hrs in presence of thalidomide by Western blot analysis. In kind it is cell-based. The conditions noted are these: Homo sapiens, dose 300-1000 nM.
A short description of data set [11]: Solubility of compound. It is filed as physicochemical.

The structures appear in SMILES notation. Active and inactive are the calls of the source. No cut-off for these calls is given here.

`Cc1sc2c(c1C)C(c1ccc(Cl)cc1)=N[C@@H](CC(=O)NCCNC(=O)c1ccc(SCCC#CC(C3CCOCC3)N3CCC(NC(=O)COc4cccc5c4C(=O)N(C4CCC(=O)NC4=O)C5=O)CC3)cc1)c1nnc(C)n1-2` (some centres undefined): the result in the data set on HEK293 [1] and with HEK293 [7] was Active. Also, the outcome in the data set with HEK293 [2], with HEK293 [3], in the data set on HEK293 [4], in the data set on HEK293 [5], with HEK293 [8] and in the data set with HEK293 [10] was inactive. The solubility entry in data set [6] and in [9] was “Insoluble” throughout.
On to `Cc1sc2c(c1C)C(c1ccc(Cl)cc1)=N[C@@H](CC(=O)NCC#CC(C1CCN(C(=O)COc3cccc4c3C(=O)N(C3CCC(=O)NC3=O)C4=O)CC1)N1CCN(C(=O)COc3cccc4c3C(=O)N(C3CCC(=O)NC3=O)C4=O)CC1)c1nnc(C)n1-2` (some centres undefined), for which the solubility entry in [11], in data set [6] and in data set [9] was “Insoluble” each time.
As for `Cc1ncsc1-c1ccc(CNC(=O)[C@@H]2C[C@@H](O)CN2C(=O)[C@@H](NC(=O)CCCCC(=O)NC2CCN(C(C#CCCSc3ccc(C(=O)NCCNC(=O)C[C@@H]4N=C(c5ccc(Cl)cc5)c5c(sc(C)c5C)-n5c(C)nnc54)cc3)C3CCOCC3)CC2)C(C)(C)C)cc1` (some centres undefined), the solubility entry in [11] is recorded as “Insoluble”.
